Assay results from PubChem BioAssay AID256 (DTP/NCI, 2004).
Values joined by “and” are separate entries in the source; they are usually repeats but may differ in a detail not shown here. Identical values can stand only once. Toxic doses and inconclusive results are not listed.

System: CD2F1 mice, L1210 leukemia ip, survival T/C
Test: NCI In Vivo Anticancer Drug Screen. Data for tumor model L1210 Leukemia (intraperitoneal) in CD2F1 (CDF1) mice
Conditions: higher = longer survival
How it was run: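 Each value reflects a quotient of treated over vehicle control outcomes in mice with a transplanted tumor.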

[1] = endpoint: mean survival time, dose: 50.0 mg/kg/injection, schedule: Q01DX009 (ip), vehicle: saline with Tween-80
[2] = endpoint: mean survival time, dose: 100.0 mg/kg/injection, schedule: Q01DX009 (ip), vehicle: saline with Tween-80
[3] = endpoint: mean survival time, dose: 200.0 mg/kg/injection, schedule: Q01DX009 (ip), vehicle: saline with Tween-80
[4] = endpoint: mean survival time, dose: 100.0 mg/kg/injection, schedule: Q04DX003 (ip), vehicle: saline with Tween-80
[5] = endpoint: mean survival time, dose: 200.0 mg/kg/injection, schedule: Q04DX003 (ip), vehicle: saline with Tween-80
[6] = endpoint: mean survival time, dose: 400.0 mg/kg/injection, schedule: Q04DX003 (ip), vehicle: saline with Tween-80
[7] = endpoint: mean survival time, dose: 25.0 mg/kg/injection, schedule: Q04DX003 (ip), vehicle: saline with Tween-80
[8] = endpoint: mean survival time, dose: 50.0 mg/kg/injection, schedule: Q04DX003 (ip), vehicle: saline with Tween-80
[9] = endpoint: mean survival time, dose: 200.0 mg/kg/injection, schedule: Q04DX002 (ip), vehicle: saline with Tween-80
[10] = endpoint: mean survival time, dose: 400.0 mg/kg/injection, schedule: Q04DX002 (ip), vehicle: saline with Tween-80

SMILES: CCC(COC(=O)c1ccc([N+](=O)[O-])cc1)NC1CCCCC1 (configuration not stated)
- T/C (endpoint: mean survival time, dose: 75.0 mg/kg/injection, schedule: Q01DX001 (ip), vehicle: saline): 102 % of control
- T/C (endpoint: mean survival time, dose: 150.0 mg/kg/injection, schedule: Q01DX001 (ip), vehicle: saline): 103 % of control
- T/C (endpoint: mean survival time, dose: 300.0 mg/kg/injection, schedule: Q01DX001 (ip), vehicle: saline): 101 % of control

SMILES: O=C(CNC(=O)Nc1ccc(F)cc1)N/N=C/c1ccc(Cl)c(Cl)c1
- T/C [1]: 96 % of control
- T/C [2]: 96 % of control
- T/C [3]: 100 % of control

SMILES: Nc1ncnc2c1c(C(=O)NO)cn2C1OC(CO)C(O)C1O (configuration not stated)
- T/C (endpoint: mean survival time, dose: 50.0 mg/kg/injection, schedule: Q01DX001 (ip), vehicle: water): 170 % of control

SMILES: Cc1cc(NC(=O)CCc2ccc(N3C(N)=NC(N)=NC3(C)C)cc2)ccc1S(=O)(=O)F
- T/C (endpoint: mean survival time, dose: 0.8 mg/kg/injection, schedule: Q01DX015 (ip), vehicle: water): 112 % of control
- T/C (endpoint: mean survival time, dose: 4.0 mg/kg/injection, schedule: Q01DX015 (ip), vehicle: water): 98 % of control
- T/C (endpoint: mean survival time, dose: 20.0 mg/kg/injection, schedule: Q01DX015 (ip), vehicle: water): 101 % of control
- T/C (endpoint: mean survival time, dose: 100.0 mg/kg/injection, schedule: Q01DX015 (ip), vehicle: water): 110 % of control
- T/C (endpoint: mean survival time, dose: 500.0 mg/kg/injection, schedule: Q01DX015 (ip), vehicle: water): 113 % of control

SMILES: OCCOc1ccc(Cl)cc1
- T/C [2]: 104 % of control
- T/C [4]: 96 % of control
- T/C [3]: 100 % of control
- T/C [5]: 96 % of control
- T/C [6]: 103 % of control

SMILES: [Cl][Pt][Cl].c1ccc([AsH](CC[AsH](c2ccccc2)c2ccccc2)c2ccccc2)cc1
- T/C [7]: 94 % of control
- T/C [8]: 88 % of control
- T/C [4]: 96 % of control

SMILES: CC(C)(CN(Cc1ccccc1)Cc1ccccc1)[N+](=O)[O-]
- T/C [1]: 98 % of control
- T/C [2]: 98 % of control
- T/C [3]: 90 % of control

SMILES: N#CC(=C1C=CC(=NO)C=C1)c1ccccc1
- T/C [1]: 93 % of control
- T/C [2]: 100 % of control
- T/C [4]: 97 % of control
- T/C [3]: 100 % of control
- T/C [5]: 96 % of control

SMILES: CCN(C(=O)Nc1ccccc1Cl)c1ccccc1
- T/C (endpoint: mean survival time, dose: 75.0 mg/kg/injection, schedule: Q04DX003 (ip), vehicle: saline with Tween-80): 102 % of control
- T/C (endpoint: mean survival time, dose: 150.0 mg/kg/injection, schedule: Q04DX003 (ip), vehicle: saline with Tween-80): 101 % of control
- T/C (endpoint: mean survival time, dose: 300.0 mg/kg/injection, schedule: Q04DX003 (ip), vehicle: saline with Tween-80): 98 % of control

SMILES: O=C1NCC(Br)C(=O)N1 (configuration not stated)
- T/C (endpoint: mean survival time, dose: 6.25 mg/kg/injection, schedule: Q01DX009 (ip), vehicle: saline + Tween-80 + alcohol): 102 % of control
- T/C (endpoint: mean survival time, dose: 12.5 mg/kg/injection, schedule: Q01DX009 (ip), vehicle: saline + Tween-80 + alcohol): 100 % of control and 109 % of control
- T/C (endpoint: mean survival time, dose: 12.5 mg/kg/injection, schedule: Q01DX009 (ip), vehicle: saline with Tween-80): 93 % of control
- T/C (endpoint: mean survival time, dose: 25.0 mg/kg/injection, schedule: Q01DX009 (ip), vehicle: saline + Tween-80 + alcohol): 93 % of control and 100 % of control
- T/C (endpoint: mean survival time, dose: 25.0 mg/kg/injection, schedule: Q01DX009 (ip), vehicle: saline with Tween-80): 96 % of control
- T/C (endpoint: mean survival time, dose: 50.0 mg/kg/injection, schedule: Q01DX009 (ip), vehicle: saline + Tween-80 + alcohol): 102 % of control
- T/C [1]: 94 % of control
- T/C (endpoint: mean survival time, dose: 100.0 mg/kg/injection, schedule: Q01DX009 (ip), vehicle: saline + Tween-80 + alcohol): 101 % of control and 105 % of control
- T/C [2]: 102 % of control
- T/C (endpoint: mean survival time, dose: 200.0 mg/kg/injection, schedule: Q01DX009 (ip), vehicle: saline + Tween-80 + alcohol): 113 % of control and 100 % of control
- T/C [3]: 90 % of control
- T/C (endpoint: mean survival time, dose: 400.0 mg/kg/injection, schedule: Q01DX009 (ip), vehicle: saline + Tween-80 + alcohol): 86 % of control

SMILES: CCOC(=O)/C=C/c1c[nH]c(C(=O)OCC)c1
- T/C (endpoint: mean survival time, dose: 100.0 mg/kg/injection, schedule: Q04DX002 (ip), vehicle: other): 93 % of control
- T/C (endpoint: mean survival time, dose: 200.0 mg/kg/injection, schedule: Q04DX002 (ip), vehicle: other): 93 % of control
- T/C (endpoint: mean survival time, dose: 400.0 mg/kg/injection, schedule: Q04DX002 (ip), vehicle: other): 100 % of control

SMILES: CCCCC(=O)n1c(Cl)c(/C=N\NC(N)=S)c2ccccc21
- T/C [7]: 101 % of control
- T/C [8]: 101 % of control
- T/C [4]: 108 % of control

SMILES: CCCCCCCCCCCCCCCCCCNC(=O)Nc1cccc(OC)c1
- T/C [9]: 96 % of control
- T/C [10]: 101 % of control

SMILES: CC1(C(=O)c2ccccc2)OC1c1ccccc1 (configuration not stated)
- T/C (endpoint: mean survival time, dose: 100.0 mg/kg/injection, schedule: Q04DX003 (ip), vehicle: acetone): 103 % of control
- T/C (endpoint: mean survival time, dose: 200.0 mg/kg/injection, schedule: Q04DX003 (ip), vehicle: acetone): 103 % of control
- T/C (endpoint: mean survival time, dose: 400.0 mg/kg/injection, schedule: Q04DX003 (ip), vehicle: acetone): 98 % of control

SMILES: Clc1nnc(Nc2ccccc2)c2ccccc12
- T/C (endpoint: mean survival time, dose: 100.0 mg/kg/injection, schedule: Q04DX003 (ip), vehicle: other): 94 % of control
- T/C (endpoint: mean survival time, dose: 200.0 mg/kg/injection, schedule: Q04DX003 (ip), vehicle: other): 88 % of control
- T/C (endpoint: mean survival time, dose: 400.0 mg/kg/injection, schedule: Q04DX003 (ip), vehicle: other): 88 % of control

SMILES: O=C1OC(c2ccccc2)(c2ccccn2)c2ccccc21 (configuration not stated)
- T/C [4]: 90 % of control
- T/C [5]: 88 % of control
- T/C [6]: 91 % of control

SMILES: Nc1c(Br)cc(Br)c2c1CCC2
- T/C (endpoint: mean survival time, dose: 100.0 mg/kg/injection, schedule: Q04DX002 (ip), vehicle: saline with Tween-80): 94 % of control
- T/C [9]: 105 % of control
- T/C [10]: 94 % of control

SMILES: CCN(CC)CCCC(C)Nc1cc(C)nc(Nc2nc3cc(Cl)c(Cl)cc3[nH]2)n1 (configuration not stated)
- T/C (endpoint: mean survival time, dose: 5.0 mg/kg/injection, schedule: Q04DX003 (ip), vehicle: saline with Tween-80): 101 % of control
- T/C (endpoint: mean survival time, dose: 10.0 mg/kg/injection, schedule: Q04DX003 (ip), vehicle: saline with Tween-80): 94 % of control
- T/C (endpoint: mean survival time, dose: 20.0 mg/kg/injection, schedule: Q04DX003 (ip), vehicle: saline with Tween-80): 91 % of control

SMILES: O=c1[nH]cnc2nc(C3OC(CO)C(O)C3O)[nH]c12 (configuration not stated)
- T/C (endpoint: median survival time, dose: 4.5 mg/kg/injection, schedule: Q01DX005 (ip), vehicle: distilled water + Tween-80): 102 % of control
- T/C (endpoint: median survival time, dose: 9.0 mg/kg/injection, schedule: Q01DX005 (ip), vehicle: distilled water + Tween-80): 106 % of control
- T/C (endpoint: median survival time, dose: 18.0 mg/kg/injection, schedule: Q01DX005 (ip), vehicle: distilled water + Tween-80): 98 % of control
- T/C (endpoint: median survival time, dose: 36.0 mg/kg/injection, schedule: Q01DX005 (ip), vehicle: distilled water + Tween-80): 100 % of control
- T/C (endpoint: median survival time, dose: 72.0 mg/kg/injection, schedule: Q01DX005 (ip), vehicle: distilled water + Tween-80): 107 % of control

SMILES: Cc1cccc(N)n1
- T/C (endpoint: mean survival time, dose: 3.13 mg/kg/injection, schedule: Q04DX002 (ip), vehicle: saline): 94 % of control
- T/C (endpoint: mean survival time, dose: 6.25 mg/kg/injection, schedule: Q04DX002 (ip), vehicle: saline): 90 % of control
- T/C (endpoint: mean survival time, dose: 12.5 mg/kg/injection, schedule: Q04DX002 (ip), vehicle: saline): 90 % of control

SMILES: CC(=O)OC1CCC(C(C)(C)C)CC1 (configuration not stated)
- T/C (endpoint: mean survival time, dose: 100.0 mg/kg/injection, schedule: Q04DX003 (ip), vehicle: saline): 102 % of control
- T/C (endpoint: mean survival time, dose: 200.0 mg/kg/injection, schedule: Q04DX003 (ip), vehicle: saline): 95 % of control
- T/C (endpoint: mean survival time, dose: 400.0 mg/kg/injection, schedule: Q04DX003 (ip), vehicle: saline): 96 % of control

SMILES: CC(C)CC(Br)C(=O)NCC(=O)O (configuration not stated)
- T/C [4]: 95 % of control
- T/C [5]: 113 % of control
- T/C [6]: 105 % of control

SMILES: N#CCc1ccc2c(c1)Sc1ccccc1O2
- T/C (endpoint: mean survival time, dose: 100.0 mg/kg/injection, schedule: Q04DX003 (ip), vehicle: Klucel (hydroxypropylcellulose) (HPC)): 108 % of control
- T/C (endpoint: mean survival time, dose: 200.0 mg/kg/injection, schedule: Q04DX003 (ip), vehicle: Klucel (hydroxypropylcellulose) (HPC)): 98 % of control
- T/C (endpoint: mean survival time, dose: 400.0 mg/kg/injection, schedule: Q04DX003 (ip), vehicle: Klucel (hydroxypropylcellulose) (HPC)): 100 % of control

SMILES: COc1ccc(C2OC2C(=O)O)cc1OC (configuration not stated)
- T/C [4]: 98 % of control
- T/C [5]: 86 % of control
- T/C [6]: 96 % of control

SMILES: C=C[Si](C)(C=C)C=C
- T/C (endpoint: mean survival time, dose: 100.0 mg/kg/injection, schedule: Q01DX009 (ip), vehicle: saline): 95 % of control
- T/C (endpoint: mean survival time, dose: 100.0 mg/kg/injection, schedule: Q04DX002 (ip), vehicle: saline): 91 % of control
- T/C (endpoint: mean survival time, dose: 200.0 mg/kg/injection, schedule: Q01DX009 (ip), vehicle: saline): 97 % of control
- T/C (endpoint: mean survival time, dose: 200.0 mg/kg/injection, schedule: Q04DX002 (ip), vehicle: saline): 98 % of control
- T/C (endpoint: mean survival time, dose: 400.0 mg/kg/injection, schedule: Q01DX009 (ip), vehicle: saline): 93 % of control
- T/C (endpoint: mean survival time, dose: 400.0 mg/kg/injection, schedule: Q04DX002 (ip), vehicle: saline): 98 % of control
